Assay results from patent publication US6605459B2, “Methods for measuring cysteine and determining cysteine synthase activity” (Paradigm Genetics, Inc., priority 2001, dated 2003).

Molecular target: T1, cysteine synthase (Arabidopsis thaliana, UniProt Q9S6Z7)
T1 construct: made in house; host or cells: E. coli BL21(DE3)lysS (pET30/CS) or Sf-9 insect cells (baculovirus, pFB/CS)
Assay: Assay tolerance of DMSO in the cysteine synthase assay
Type: biochemical
Settings: 0 to 2% DMSO (by volume)
Method: A cysteine synthase assay was performed using various amounts of DMSO to test the assay compatibility of the DMSO. The results are shown in FIG. 24, where all values are the mean of triplicate determinations, and standard deviations are indicated.

T1 sequence (Q9S6Z7 whole entry): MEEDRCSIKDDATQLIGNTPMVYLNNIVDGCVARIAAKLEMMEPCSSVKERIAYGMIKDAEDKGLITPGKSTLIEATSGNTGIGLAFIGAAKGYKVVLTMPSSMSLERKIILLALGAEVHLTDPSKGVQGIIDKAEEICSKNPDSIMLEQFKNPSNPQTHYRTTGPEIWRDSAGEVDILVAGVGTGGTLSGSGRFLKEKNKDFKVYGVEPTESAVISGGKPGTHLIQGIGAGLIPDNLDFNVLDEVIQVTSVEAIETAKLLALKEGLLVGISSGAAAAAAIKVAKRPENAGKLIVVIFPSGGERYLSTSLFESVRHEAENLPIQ

C[S+](C)[O-] [DMSO, dimethyl sulfoxide]
inhibitory effect on cysteine synthase activity: No inhibitory effect
